The results in this text go back to US8722642B2, “Multiantivirus compound, composition and method for treatment of virus diseases” (Biocell Laboratories, priority 2011, dated 2014).

In experiment [1] the test system is hemagglutinin of influenza virus AFM 1/47 (H1N1). The experiment in a line: Hemagglutination reaction: influence on hemagglutinin activity of influenza virus. Type of experiment: biochemical.
Experiment [2] concerns influenza virus A/FM/1/47(H1N1), adapted for lungs of white mice. The experiment in a line: Model of influenza pneumonia in mice. The note with it: Tamiflu, dose not given, intra-abdominal. In kind it is in vivo.

For the compound `OC[C@@H](O)[C@@H](O)[C@H](O)[C@H](O)CO` [Mannitol], the “Difference in the virus titers” value in experiment [1] (0.5 mg/ml, temperature of reaction 30 ° C.) is reported as 0 log2x. Moreover, the “Virus titer in the experiment” value in experiment [1] (0.5 mg/ml, temperature of reaction 30 ° C., control virus 8) is reported as 8 log2x.

Take `CCOC(=O)C1=C[C@@H](OC(CC)CC)[C@H](NC(C)=O)[C@@H](N)C1` [Tamiflu, Oseltamivir]: in experiment [2] (preventive regimen), the “% died” value is listed as 30 ± 1.0%, the “CP (Coefficient of protection)” value was found to be 5.0 and the “IE (Index of effectiveness)” value turned out to be 70.0. Moreover, in experiment [2] (treatment regimen), the “% died” value was determined as 20.0 ± 0.5%, the “CP (Coefficient of protection)” value was found to be 10.0 and the “IE (Index of effectiveness)” value is on record as 80.0.

As for Poliguanylic acid [Poly G], the “Difference in virus titers” value in experiment [1] (concentration 10 mg/ml) is recorded as 0 lg2^X. For the same compound, the “Virus titer in the experiment” value in experiment [1] (concentration 10 mg/ml, […]) is recorded as 9 lg2^X.

Turning to Polyadenylic acid [Poly A], in experiment [1] (concentration 10 mg/ml), the “Difference in virus titers” value is 2 lg2^X. For the same compound, the “Virus titer in the experiment” value in experiment [1] (concentration 10 mg/ml, […]) came out at 7 lg2^X.

On to Polycytydilic acid [Poly C], for which the “Difference in virus titers” value in experiment [1] (concentration 10 mg/ml) is on record as 2 lg2^X. In addition, the “Virus titer in the experiment” value in experiment [1] (concentration 10 mg/ml, […]) came out at 7 lg2^X.

For the compound “Polyinosinic:polycytidylic acid [PolyIC]”, the “Difference in virus titers” value in experiment [1] (concentration 10 mg/ml) is 3 lg2^X. Moreover, in experiment [1] (concentration 10 mg/ml, […]), the “Virus titer in the experiment” value came out at 9 lg2^X.

Turning to Polyinosylic acid [Poly I], in experiment [1] (concentration 10 mg/ml), the “Difference in virus titers” value was found to be 3 lg2^X. Besides, in experiment [1] (concentration 10 mg/ml, […]), the “Virus titer in the experiment” value amounted to 6 lg2^X.

As to Polyurydylic acid [Poly U], in experiment [1] (concentration 10 mg/ml), the “Difference in virus titers” value was determined as 2 lg2^X. Also, the “Virus titer in the experiment” value in experiment [1] (concentration 10 mg/ml, […]) turned out to be 9 lg2^X.
